Source: ChEMBL document CHEMBL3108668, “Antitumor activity of jujuboside B and the underlying mechanism via induction of apoptosis and autophagy” (J Nat Prod, 2014)
The source made the active and inactive calls. The rule behind the calls is not given here.

How the values were obtained:
AGS [1] = experiment: Induction of autophagy in human AGS cells assessed as massive vacuole formation at 50 uM after 24 hrs by acridine orange staining-based fluorescence microscopy; type: functional, cell-based
AGS [2] = experiment: Induction of apoptosis in human AGS cells assessed as reduction of caspase8 activation at 100 uM after 24 hrs by Western blotting analysis in presence of bafilomycin A1; type: functional, cell-based
HCT-116 [3] = experiment: Induction of apoptosis in human HCT116 cells assessed as necrotic cells at 100 uM after 24 hrs by annexin V-FITC/propidium iodide staining-based flow cytometry (reference value: 0.68%); type: functional
HCT-116 [4] = experiment: Induction of apoptosis in human HCT116 cells assessed as late apoptotic cells at 150 uM after 24 hrs by annexin V-FITC/propidium iodide staining-based flow cytometry (reference value: 2.71%); type: functional
AGS [5] = experiment: Induction of apoptosis in human AGS cells assessed as reduction of caspase8 activation at 100 uM after 24 hrs by Western blotting analysis in presence of SB202190; type: functional, cell-based
HCT-116 [6] = experiment: Induction of apoptosis in human HCT116 cells assessed as cell rounding at >100 uM after 24 hrs by acridine orange staining-based microscopy; type: functional
HCT-116 [7] = experiment: Induction of autophagy in human HCT116 cells assessed as massive vacuole formation at 50 uM after 24 hrs by acridine orange staining-based fluorescence microscopy in presence of bafilomycin A1; type: functional, cell-based
AGS [8] = experiment: Induction of apoptosis in human AGS cells assessed as increase in pJNK level at 100 uM after 24 hrs by Western blotting analysis in presence of bafilomycin A1; type: functional, cell-based
HCT-116 [9] = experiment: Induction of apoptosis in human HCT116 cells assessed as membrane blebbing at >100 uM after 24 hrs by acridine orange staining-based microscopy; type: functional, cell-based
AGS [10] = experiment: Cell cycle arrest in human AGS cells assessed as accumulation at sub G1 phase at 200 uM after 24 hrs by propidium iodide staining-based flow cytometry; type: functional
AGS [11] = experiment: Induction of apoptosis in human AGS cells assessed as late apoptotic cells at 150 uM after 24 hrs by annexin V-FITC/propidium iodide staining-based flow cytometry (reference value: 7.3%); type: functional
AGS [12] = experiment: Induction of apoptosis in human AGS cells assessed as PARP-1 cleavage after 24 hrs by Western blotting analysis; type: functional, cell-based
AGS [13] = experiment: Induction of apoptosis in human AGS cells assessed as caspase-9 activation at 25 to 150 uM after 24 hrs by Western blotting analysis; type: functional, cell-based
AGS [14] = experiment: Induction of apoptosis in human AGS cells assessed as increase in pp38 level at 25 to 150 uM after 24 hrs by Western blotting analysis; type: functional, cell-based
AGS [15] = experiment: Cell cycle arrest in human AGS cells assessed as accumulation at sub G1 phase at 150 uM after 24 hrs by propidium iodide staining-based flow cytometry; type: functional
AGS [16] = experiment: Induction of apoptosis in human AGS cells assessed as membrane blebbing at >100 uM after 24 hrs by acridine orange staining-based microscopy; type: functional, cell-based
AGS [17] = experiment: Induction of apoptosis in human AGS cells assessed as reduction of FasL level at 100 uM after 24 hrs by Western blotting analysis in presence of SP600125; type: functional, cell-based
HCT-116 [18] = experiment: Antitumor activity against human HCT116 cells xenografted in BALB/c nude mouse at 40 mg/kg, ip administered 3 times a week for 5 weeks relative to control; type: functional; settings: route intraperitoneal
AGS [19] = experiment: Induction of apoptosis in human AGS cells assessed as early apoptotic cells at 150 uM after 24 hrs by annexin V-FITC/propidium iodide staining-based flow cytometry (reference value: 6.6%); type: functional
AGS [20] = experiment: Cytotoxicity against human AGS cells at 100 uM after 24 hrs by MTT assay in presence of bafilomycin A1; type: functional, cell-based
AGS [21] = experiment: Induction of apoptosis in human AGS cells assessed as reduction of caspase3 activation at 100 uM after 24 hrs by Western blotting analysis in presence of SB202190; type: functional, cell-based
AGS [22] = experiment: Induction of apoptosis in human AGS cells assessed as increase in FasL level at 100 uM after 24 hrs by Western blotting analysis in presence of bafilomycin A1; type: functional, cell-based
HCT-116 [23] = experiment: Induction of apoptosis in human HCT116 cells assessed as early apoptotic cells at 50 uM after 24 hrs by annexin V-FITC/propidium iodide staining-based flow cytometry (reference value: 3.61%); type: functional
Mus musculus = experiment: Toxicity in BALB/c nude mouse xenografted with human HCT116 cells assessed as change in body weight at 40 mg/kg, ip administered 3 times a week for 5 weeks; type: organism-based, HCT-116; set-up: dose 40 mg/kg, route intraperitoneal; settings: in vivo, 840 h
AGS [24] = experiment: Induction of apoptosis in human AGS cells assessed as caspase-3 activation after 24 hrs by Western blotting analysis; type: functional, cell-based
HCT-116 [25] = experiment: Induction of apoptosis in human HCT116 cells assessed as necrotic cells at 50 uM after 24 hrs by annexin V-FITC/propidium iodide staining-based flow cytometry (reference value: 0.68%); type: functional
AGS [26] = experiment: Cell cycle arrest in human AGS cells assessed as accumulation at sub G1 phase at 100 uM after 24 hrs by propidium iodide staining-based flow cytometry in presence of bafilomycin A1; type: functional
HCT-116 [27] = experiment: Induction of apoptosis in human HCT116 cells assessed as necrotic cells at 150 uM after 24 hrs by annexin V-FITC/propidium iodide staining-based flow cytometry (reference value: 0.68%); type: functional
AGS [28] = experiment: Induction of apoptosis in human AGS cells assessed as late apoptotic cells at 25 uM after 24 hrs by annexin V-FITC/propidium iodide staining-based flow cytometry (reference value: 7.3%); type: functional
AGS [29] = experiment: Induction of autophagy in human AGS cells assessed as massive vacuole formation at 50 uM after 24 hrs by fluorescence microscopy; type: functional, cell-based
AGS [30] = experiment: Induction of apoptosis in human AGS cells assessed as necrotic cells at 100 uM after 24 hrs by annexin V-FITC/propidium iodide staining-based flow cytometry (reference value: 0.12%); type: functional
HCT-116 [31] = experiment: Induction of apoptosis in human HCT116 cells assessed as late apoptotic cells at 25 uM after 24 hrs by annexin V-FITC/propidium iodide staining-based flow cytometry (reference value: 2.71%); type: functional
AGS [32] = experiment: Induction of apoptosis in human AGS cells assessed as late apoptotic cells at 50 uM after 24 hrs by annexin V-FITC/propidium iodide staining-based flow cytometry (reference value: 7.3%); type: functional
AGS [33] = experiment: Induction of apoptosis in human AGS cells assessed as cell shrinkage at >100 uM after 24 hrs by acridine orange staining-based microscopy; type: functional
AGS [34] = experiment: Induction of apoptosis in human AGS cells assessed as increase in LC3-2 level at 50 uM after 24 hrs by Western blotting analysis in presence of bafilomycin A1; type: functional, cell-based
AGS [35] = experiment: Induction of apoptosis in human AGS cells assessed as cell rounding at >100 uM after 24 hrs by acridine orange staining-based microscopy; type: functional
AGS [36] = experiment: Induction of apoptosis in human AGS cells assessed as early apoptotic cells at 100 uM after 24 hrs by annexin V-FITC/propidium iodide staining-based flow cytometry (reference value: 6.6%); type: functional
HCT-116 [37] = experiment: Cell cycle arrest in human HCT116 cells assessed as accumulation at sub G1 phase after 24 hrs by propidium iodide staining-based flow cytometry; type: functional

CC(C)=C[C@H]1C[C@](C)(O)[C@@H]2[C@H]3CC[C@@H]4[C@@]5(C)CC[C@H](O[C@@H]6OC[C@H](O)[C@H](O[C@@H]7O[C@H](CO)[C@@H](O)[C@H](O)[C@H]7O[C@@H]7OC[C@@H](O)[C@H](O)[C@H]7O)[C@H]6O[C@@H]6O[C@@H](C)[C@H](O)[C@@H](O)[C@H]6O)C(C)(C)[C@@H]5CC[C@@]4(C)[C@@]34CO[C@@]2(C4)O1
Activity (AGS [1]): Active | Activity (AGS [2]): Active | Activity (HCT-116 [3]): 3.05% | Activity (HCT-116 [4]): 17.9% | Activity (AGS [5]): inactive | Activity (HCT-116 [6]): Active | Activity (HCT-116 [7]): inactive | Activity (AGS [8]): Active | Activity (HCT-116 [9]): Active | Activity (AGS [10]): 49.65% | Activity (AGS [11]): 12.12% | Activity (AGS [12]): Dose-dependent effect | Activity (AGS [13]): inactive | Activity (AGS [14]): Active | Activity (AGS [15]): 21.73% | Activity (AGS [16]): Active | Activity (AGS [17]): inactive | Activity (HCT-116 [18]): 60% | Activity (AGS [19]): 27.43% | Activity (AGS [20]): Active | Activity (AGS [21]): inactive | Activity (AGS [22]): Active | Activity (HCT-116 [23]): 6.65% | Activity (Mus musculus): Non-toxic | Activity (AGS [24]): Dose-dependent effect | Activity (HCT-116 [25]): 0.5% | Activity (AGS [26]): Active | Activity (HCT-116 [27]): 5.1% | Activity (AGS [28]): 5.24% | Activity (AGS [29]): Active | Activity (AGS [30]): 1.06% | Activity (HCT-116 [31]): 1.67% | Activity (AGS [32]): 7.05% | Activity (AGS [33]): Active | Activity (AGS [34]): Active | Activity (AGS [35]): Active | Activity (AGS [36]): 16.41% | Activity (HCT-116 [37]): Dose-dependent effect
